According to US7514251B2, “O-methyltransferases of tetrahydrobenzylisoquinoline alkaloid biosynthesis in Papaver somniferum” (priority 2003, dated 2009):
Read-outs that look alike come from different tables or passages of the source. Marks after values point to notes of the source that are not given here.

Assays:
Assay type in all cases: biochemical
[1] = molecular target: T1, PSOMT1 ((R,S)-reticuline 7-O-methyltransferase) (Papaver somniferum, UniProt Q6WUC2); assay: HPLC-MS identification of enzymic products of PSOMT1; settings: for position of O-methylation by PSOMT1: HPLC-MS of enzymic product
T1 construct: The full-length cDNA generated by RT-PCR was ligated into pFastBac HTa; His6 (N); made in house; host or cells: Spodoptera frugiperda Sf9 (baculovirus, pFastBac HTa)
Procedure: (§1) The identity of the enzymic reaction products was ascertained by HPLC-MS using a Finnigan MAT TSQ 7000 (electrospray voltage 4.5 kV, capillary temperature 220° C., carrier gas N2) coupled to a Micro-tech Ultra-Plus Micro-LC equipped with an Ultrasep RP18 column; 5 μm; 1×10 mm), Solvent system (A) 99.8% (v/v) H2O, 0.2% HOAc (B) 99.8% CH3CN (v/v), 0.2% HOAc; gradient: 0-15 min 10-90% B, 15-25 min 90% B; flow 70 μl min^−1). The collision-induced dissociation (CID; collision energy, −25 eV; collision gas, argon; collision pressure, 1.8×10^−3 Torr) mass spectra for the tetrahydrobenzylisoquinoline alkaloids were recorded.
(§2) Structure Elucidation of Enzymic Products—Initial enzyme activity measurements were carried out using a radioassay. Many of the substrates tested contained more than one site of potential methylation. […] Tetrahydrobenzylisoquinolines readily cleave at low ionization energies into the corresponding isoquinoline- and benzyl ions. This enables identification of methylation at either moiety. Each alkaloidal substrate was monitored for purity by HLPC-MS and the fragmentation pattern was determined. Enzymic product fragmentation patterns were then compared to those of substrate. All substrates were methylated by either PSOMT1 or PSOMT2 on the isoquinoline moiety. For example, (R)- or (S)-reticuline ([M+H]^+ m/z 330) has the major fragment ions m/z 192 (isoquinoline) and m/z 137 (benzyl). The methylation of (R)- or (S)-reticuline by PSOMT1 results in a product of [M+H]^+ m/z 344 (methylated (R)- or (S)-reticuline) with fragment ions at m/z 206 (isoquinoline+CH2) and m/z 137 (unmodified benzyl). Likewise, (R,S)-norcoclaurine ([M+H]^+ m/z 272) has the major fragment ions m/z 161 (isoquinoline) and m/z 107 (benzyl). The methylation of (R,S)-norcoclaurine by PSOMT2 results in a product of [M+H]^+ m/z 286 (methylated (R,S)-norcoclaurine) with fragment ions at m/z 175 (isoquinoline+CH2) and m/z 107 (unmodified benzyl).

[2] = molecular target: T2, PSOMT2 ((R,S)-norcoclaurine 6-O-methyltransferase) (Papaver somniferum, UniProt Q6WUC1); assay: Radioassay of recombinant PSOMT2 with [methyl-3H]-AdoMet (substrate specificity, kinetics, pH and temperature optima); settings: for Substrate specificity, relative activity of PSOMT2: 100% activity = 2.0 pmoles/sec/mg total protein, radioassay; for Vmax Substrate / kcat Substrate / pH optimum of methyl transfer / Km / kcat/Km ratio relative to that obtained for (R,S)-norcoclaurine: PSOMT2; for methylated by PSOMT2 (radioassay, in words): one of forty substrates tested
T2 construct: The full-length cDNA generated by RT-PCR was ligated into pFastBac HTa; His6 (N); made in house; host or cells: Spodoptera frugiperda Sf9 (baculovirus, pFastBac HTa)
T2 sequence (Q6WUC1 1-346): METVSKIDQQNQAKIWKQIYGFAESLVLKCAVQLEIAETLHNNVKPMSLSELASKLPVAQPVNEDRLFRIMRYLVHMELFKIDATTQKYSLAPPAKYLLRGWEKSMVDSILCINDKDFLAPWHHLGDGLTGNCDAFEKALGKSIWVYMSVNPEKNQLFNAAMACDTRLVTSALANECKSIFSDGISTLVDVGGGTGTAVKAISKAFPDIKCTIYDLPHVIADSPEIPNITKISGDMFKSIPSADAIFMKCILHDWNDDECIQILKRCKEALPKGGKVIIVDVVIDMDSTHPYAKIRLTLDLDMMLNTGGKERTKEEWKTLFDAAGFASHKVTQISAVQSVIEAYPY
Excerpt: (§3) Heterologous Expression and Enzyme Purification—The full-length cDNA generated by RT-PCR was ligated into pFastBac HTa that had been digested with restriction endonucleases BamHI and NotI. The recombinant plasmid was transposed into baculovirus DNA in the Escherichia coli strain DH10BAC (Life Technologies) and then transfected into Spodoptera frugiperda Sf9 cells according to the manufacturer's instructions. The insect cells were propagated and the recombinant virus was amplified according to (16,17). INSECT-XPRESS serum-free medium (Bio Whittaker) was used in the enzyme expression experiments.
(§4) After infection of 20 ml suspension grown insect cells had proceded for 3-4 days at 28° C. and 130 rpm, the cells were removed by centrifugation under sterile conditions at 900× g for 5 min at 4° C. All subsequent steps were performed at 4° C. The pellet was discarded and to the medium was added 0.73 g NaCl, 2.5 ml glycerol and 50 μl […]-mercaptoethanol. The pH was adjusted to 7.0 with 1.0 M NaOH. The His-tagged O-methyltransferase was then purified by affinity chromatography using a cobalt resin (Talon, Clontech) according to the manufacturer's instructions.
(§5) Enzyme assay and product identification: The O-methylation reactions catalysed by the two O-methyltransferases were assayed at least two times in duplicate according to Rüffer et al. (1983a; 1983b) as follows. Substrate (25 nmol), [methyl-3H]-AdoMet (20,000 dpm, 0.4 fmol), AdoMet (10 nmol) Tris/HC1 buffer pH 8.0 (10 μmol), ascorbate (5 μmol) and 5-10 μg of enzyme were incubated in a total volume of 150 μl at 35° C. for 5-60 min. The enzymic reaction was terminated by addition of 200 μl ethylacetate. The organic phase ([…]) was added to 3 ml high flash point liquid scintillation cocktail (Packard) and the radioactivity quantified with a Beckman LS6000TA liquid scintillation counter.
(§6) General Methods—Total RNA was isolated and RNA gels were run and blotted as described previously (20). Genomic DNA was isolated and DNA gels were run and blotted according to (21). cDNA clones were labeled by PCR labeling with [[…]-^32P]dATP. Hybridized RNA on RNA gel blots and DNA on DNA gel blots were visualized with a STORM phosphor imager (Molecular Dynamics). The entire nucleotide sequence on both DNA strands of the full-length clone was determined by dideoxy cycle sequencing using internal DNA sequences for the design of deoxyoligonucleotides as sequencing primers. Saturation curves and double reciprocal plots were constructed with the Fig. P program Version 2.7 (Biosoft, Cambridge, UK). The influence of pH on enzyme activity was monitored in sodium citrate (pH 4-6), sodium phosphate (pH 6-7.0) and Tris-HCl (pH 7.0-9), glycine/NaOH (pH 9-10.5) buffered solutions.

[3] = molecular target: T1, PSOMT1 ((R,S)-reticuline 7-O-methyltransferase); settings: for Substrate specificity, relative activity of PSOMT1: 100% activity = 1.5 pmoles/sec/mg total protein, radioassay; for Vmax Substrate / kcat Substrate / pH optimum of methylation / ratio kcat/Km / Km / temperature optimum: PSOMT1; for methylated by PSOMT1 (radioassay, in words): one of forty substrates tested
Excerpt: as §3, §4, §5, §6

[4] = molecular target: T2, PSOMT2 ((R,S)-norcoclaurine 6-O-methyltransferase); assay: HPLC-MS identification of enzymic products of PSOMT2; settings: HPLC-MS of enzymic product
Procedure: as §1, §2

[5] = co-substrate AdoMet with the named substrate, read-out: Km AdoMet

T1 sequence (Q6WUC2 whole entry): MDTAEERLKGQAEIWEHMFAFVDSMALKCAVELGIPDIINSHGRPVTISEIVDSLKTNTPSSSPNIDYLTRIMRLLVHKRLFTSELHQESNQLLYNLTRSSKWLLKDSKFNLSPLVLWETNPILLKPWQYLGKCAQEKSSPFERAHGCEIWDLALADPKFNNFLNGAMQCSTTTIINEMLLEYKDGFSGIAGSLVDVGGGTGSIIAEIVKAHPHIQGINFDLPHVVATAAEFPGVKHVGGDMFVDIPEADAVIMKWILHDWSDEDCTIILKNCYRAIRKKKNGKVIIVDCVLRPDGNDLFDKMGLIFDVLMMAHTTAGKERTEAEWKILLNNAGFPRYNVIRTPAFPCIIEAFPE

Row | Structure (SMILES) | position of O-methylation by PSOMT1 [1] | Substrate specificity, relative activity of PSOMT2 [2] | Vmax Substrate [2] | kcat Substrate [2] | pH optimum of methyl transfer [2] | Km [2, 5] | Km ([2]; read-out: Km Substrate) | methylated by PSOMT2 (radioassay, in words) [2] | Substrate specificity, relative activity of PSOMT1 [3] | Vmax Substrate [3] | kcat Substrate [3] | pH optimum of methylation [3] | ratio kcat/Km [3] | Km [3, 5] | Km ([3]; read-out: Km Substrate) | methylated by PSOMT1 (radioassay, in words) [3] | position of O-methylation by PSOMT2 [4] | share of product that is double methylated 7,4′-O-dimethylorientaline (laudanosine) and monomethylated 4′-O-methylorientaline ([1]; PSOMT1, main product 7-O-methylorientaline) | kcat/Km ratio relative to that obtained for (R,S)-norcoclaurine [2] | temperature optimum [3]
1 | COc1cc(CC2c3cc(OC)c(O)cc3CCN2C)ccc1O (racemic) [(R,S)-Isoorientaline] | O-methylated by PSOMT1 at C-6 | 47% | 2 pmol/s | 0.03 s⁻¹ | 7.5 | 280 µM | 29 µM | methylating | 46% | 1 pmol/s | 0.02 s⁻¹ | 7.5-9.0 | 1440 M⁻¹ s⁻¹ | 260 µM | 17 µM | methylates | at C-6 | – | – | –
2 | COc1cc(C[C@@H]2c3cc(O)c(OC)cc3CCN2C)ccc1O (racemic) [(R,S)-Orientaline] | O-methylated at C-7 | 0% | – | – | – | – | – | – | 48% | – | – | – | – | – | – | methylates | – | Approximately 1% | – | –
3 | COc1ccc(C[C@H]2NCCc3cc(O)c(OC)cc32)cc1O [(R)-Norprotosinomenine] | – | 26% | 1 pmol/s | 0.02 s⁻¹ | 7.5 | 200 µM | 5 µM | methylating | 0% | – | – | – | – | – | – | – | at C-6 | – | 55% | –
4 | COc1ccc(C[C@@H]2c3cc(OC)c(O)cc3CCN2C)cc1O [(R)-Protosinomenine] | O-methylated by PSOMT1 at C-6 | 0% | – | – | – | – | – | – | 52% | 2 pmol/s | 0.03 s⁻¹ | 9.0 | 1670 M⁻¹ s⁻¹ | 320 µM | 16 µM | methylates | – | – | – | 39 °C
5 | COc1ccc(C[C@@H]2c3cc(O)c(OC)cc3CCN2C)cc1O [(R)-Reticuline] | O-methylated at C-7 | 0% | – | – | – | – | – | – | 100^a % | 4 pmol/s | 0.07 s⁻¹ | 8.0 | 4200 M⁻¹ s⁻¹ | 310 µM | 17 µM | methylates | – | – | – | 37 °C
6 | COc1ccc(C[C@@H]2NCCc3cc(O)c(OC)cc32)cc1O [(S)-Norprotosinomenine] | – | 26% | 1 pmol/s | 0.02 s⁻¹ | 7.5 | 260 µM | 5 µM | methylating | 0% | – | – | – | – | – | – | – | at C-6 | – | 55% | –
7 | COc1ccc(C[C@H]2c3cc(O)c(OC)cc3CCN2C)cc1O [(S)-Reticuline] | O-methylated at C-7 | 0% | – | – | – | – | – | – | 100^a % | 4 pmol/s | 0.07 s⁻¹ | 8.0 | 4500 M⁻¹ s⁻¹ | 360 µM | 16 µM | methylates | – | – | – | 37 °C
